As usually defined, the IC50 is the concentration that gives 50% inhibition.

SMILES strings stand for the structures. Like-named read-outs stand apart in the source and are kept apart here.

From patent publication US7420001B2 (Wyeth, priority 2003, dated 2008) come the findings set out here.

In one assay the target is T1, MMP-13 (Homo sapiens, UniProt P45452).
T1 construct: made in house
Nature of the assay: In-vitro fluorescence assay of MMP-13 activity. Type of assay: biochemical.

In the next assay the target is T2, Aggrecanase-1 (Homo sapiens, UniProt O75173).
T2 sequence (O75173 213-837): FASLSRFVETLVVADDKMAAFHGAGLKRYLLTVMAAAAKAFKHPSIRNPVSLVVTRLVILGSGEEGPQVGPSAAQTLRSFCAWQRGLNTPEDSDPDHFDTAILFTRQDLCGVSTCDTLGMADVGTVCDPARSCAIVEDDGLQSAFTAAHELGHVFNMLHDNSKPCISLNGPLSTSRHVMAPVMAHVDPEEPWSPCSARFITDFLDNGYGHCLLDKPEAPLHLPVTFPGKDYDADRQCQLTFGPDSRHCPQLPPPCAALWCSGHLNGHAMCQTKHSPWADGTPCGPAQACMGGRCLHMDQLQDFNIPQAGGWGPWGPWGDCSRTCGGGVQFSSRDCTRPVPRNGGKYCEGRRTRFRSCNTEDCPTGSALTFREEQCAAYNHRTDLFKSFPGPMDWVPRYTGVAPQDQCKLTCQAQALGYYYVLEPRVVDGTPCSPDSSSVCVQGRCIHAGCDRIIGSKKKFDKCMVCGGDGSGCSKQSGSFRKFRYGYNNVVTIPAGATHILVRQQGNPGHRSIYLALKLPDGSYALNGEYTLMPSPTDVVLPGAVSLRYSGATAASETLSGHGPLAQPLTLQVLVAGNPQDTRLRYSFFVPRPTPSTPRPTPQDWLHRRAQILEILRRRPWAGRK
As to the kind of experiment: Aggrecanase-1 FRET assay. Conditions: for IC50: rAgg1, WAAG-3R substrate, read-out: AGG-1 IC50. It counts as biochemical. On the procedure:
h. Aggrecanase-1 FRET Assay:
The following protocol was used: • Fluorimeter was started and temperature set to 30° C., about 30 min before setting up the assay. The following reagents are used: • Buffer: 50 mM HEPES, pH 7.5, 100 mM NaCl, 5 mM CaCl2, 0.1% CHAPS, 5% glycerol. • rAgg1: 5 μg/ml (final concentration in the assay): • Substrate: WAAG-3R (MWT=1645.8, Anaspec, stored at 4° C.). Make a stock at 2 mg/ml in 100% DMSO. Measure the absorbance at 354 nm (ε=18172 M^−1 cm^−1) to determine the exact concentration. Dilute to 62.5 μM in buffer. Store unused 100% DMSO stock at −80° C. Final concentration of substrate in the assay is 25 μM. […] Make up inhibitors at 10× starting concentration in 100% DMSO. Perform serial dilutions (in duplicate) across the nunc plate in 100% DMSO; • Dilution plates: Nunc, polypropylene low binding (Nalgene) • Assay plate: Fluoronunc (Nalgene) • Fluorimeter: GeminiXS (Molecular Devices).; • The assay is performed as follows: The plates are set up so that the final column (12) is used for controls. Total reaction volume is 100 μl. Each compound is assayed in duplicate, so 4 compounds are screened per plate. • 1) Add buffer to the entire 96-well plate (30 ρl/well). • 2) Dilute rAgg1 to 25 μg/ml buffer just prior to addition on the plate. Add 20 μl/well to all wells. Mix 6 times. • 3) Add 10 μl/well of 10× inhibitors from the working plate, except column 12. Mix 6 times. […] Mix 6 times.
The reaction is monitored for 30-40 min at 30° C. λex: 340 nm and λ em: 420 nm). The fluorescence is linear during this time and the slope of the line (Vmax/sec) represents the initial reaction rate, ν. The maximal rate of cleavage of substrate is determined in the absence of inhibitor. The percent inhibition of activity in the presence of inhibitor is calculated as follows:
[formula] The IC50 was obtained by fitting the initial rate, ν, or % inhibition at each concentration of inhibitor to the following equation in Excel. y=(a−d)/(1+C/IC50)^n)+d This model describes a sigmoidal curve with an adjustable baseline, […]. y is the % inhibition or initial rate of reaction, C is the concentration of inhibitor under test. a is the limiting response as C approaches zero. […] The sign of n is positive when the response increases with increasing dose and is negative when the response decreases with increasing dose (inhibition).

Another assay deals with T3, MMP-14 (Homo sapiens, UniProt P50281).
T3 construct: 20 kDa; purchased Chemicon International, Inc. CC 1041
As to the kind of experiment: In-vitro fluorescence assay of MMP-14 activity. Type of assay: biochemical. The settings on record: for IC50: recombinant human catalytic domain of MMP-14.

In another assay the target is T4, MMP-2 (Homo sapiens, UniProt P08253).
T4 construct: purchased Oncogene Research Products (Calbiochem) PF023
T4 sequence (P08253 110-660): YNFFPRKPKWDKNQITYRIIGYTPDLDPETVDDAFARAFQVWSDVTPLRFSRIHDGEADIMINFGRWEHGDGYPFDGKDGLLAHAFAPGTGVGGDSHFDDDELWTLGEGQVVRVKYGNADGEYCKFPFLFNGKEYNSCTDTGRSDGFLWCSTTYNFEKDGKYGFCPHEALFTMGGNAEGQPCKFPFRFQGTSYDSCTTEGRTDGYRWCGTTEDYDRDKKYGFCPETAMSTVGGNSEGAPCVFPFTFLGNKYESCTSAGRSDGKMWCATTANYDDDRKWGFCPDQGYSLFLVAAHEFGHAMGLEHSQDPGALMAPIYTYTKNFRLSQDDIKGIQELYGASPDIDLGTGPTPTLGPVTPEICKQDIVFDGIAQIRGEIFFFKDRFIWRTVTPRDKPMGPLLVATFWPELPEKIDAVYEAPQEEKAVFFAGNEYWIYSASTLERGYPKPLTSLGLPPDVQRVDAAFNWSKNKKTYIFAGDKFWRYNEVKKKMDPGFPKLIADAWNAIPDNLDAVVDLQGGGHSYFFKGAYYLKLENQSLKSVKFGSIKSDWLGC
Nature of the assay: In-vitro fluorescence assay of MMP-2 activity. It counts as biochemical.

In another assay the target is T5, MMP-1 (Homo sapiens, UniProt P03956).
T5 sequence (P03956 100-269 limits assumed): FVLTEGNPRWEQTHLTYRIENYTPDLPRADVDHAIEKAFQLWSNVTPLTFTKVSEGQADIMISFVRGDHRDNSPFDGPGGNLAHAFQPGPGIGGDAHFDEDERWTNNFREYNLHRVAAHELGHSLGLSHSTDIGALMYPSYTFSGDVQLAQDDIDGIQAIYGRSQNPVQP

The target of a further assay is T6, MMP-12 (Homo sapiens, UniProt P39900).
T6 construct: made in house
T6 sequence (P39900 106-280 limits assumed): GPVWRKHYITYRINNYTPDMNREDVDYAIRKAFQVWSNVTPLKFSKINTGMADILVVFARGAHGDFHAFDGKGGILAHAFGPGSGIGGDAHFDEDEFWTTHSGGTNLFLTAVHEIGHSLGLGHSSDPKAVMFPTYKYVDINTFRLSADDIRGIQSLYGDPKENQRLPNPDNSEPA
Nature of the assay: In vitro fluorescence assay of MMP-12 activity. Type of assay: biochemical. Conditions: recombinant human MMP-12.

Setting [1] is: recombinant human catalytic domain of MMP-13, read-out: MMP-13 IC50.
The mark [2] stands for this setting: recombinant human MMP-2, read-out: MMP-2 IC50.

Method for MMP-12: A continuous, assay was used in which the substrate is a synthetic peptide containing a fluorescent group (7-methoxycoumarin; Mca) which is quenched by energy transfer to a 2,4-dinitrophenyl group. […] The concentration of the substrate stock was spectrophotometrically determined using the extinction coefficient at 410 nm of 7500 M^−1cm^−1. The assay buffer (pH 7.4) consisted of 50 mM Hepes, 100 mM NaCl, 5 mM CaCl2, and 0.005% Brij-35. […] The plates were then incubated at room temperature for 30 minutes. The enzymatic reactions were initiated by adding substrate to a final concentration of 20 μM and they were mixed by pipetting up and down. The final DMSO concentration in the assay was 10% and the final, total assay volume was 200 μl.
Method for MMP-13: A continuous assay was used in which the substrate is a synthetic peptide containing a fluorescent group (7-methoxycoumarin; Mca) which is quenched by energy transfer to a 2,4-dinitrophenyl group. […] The substrate used was Mca-PQGL-(3-[2,4-dinitrophenyl]-L-2,3-diaminopropionyl)-AR-OH (denoted as Wammp-5, custom synthesized by AnaSpec, Inc.). The assay buffer consisted of 50 mM Hepes (pH 7.4), 100 mM NaCl, 5 mM CaCl2, and 0.005% Brij-35. Each well of black polystyrene 96-well plates contained a 200 μL reaction mixture consisting of assay buffer, purified MMP (final concentration of 0.5 nM, prepared by diluting with the assay buffer), and varied concentrations of inhibitor (prepared by serially diluting a given inhibitor in DMSO in 96-well polypropylene plate). […] The enzymatic reactions were initiated by adding the substrate to a final concentration of 20 μM, and mixing 10 times with a pipette. The final DMSO concentration in the assay was 6.0%.
(§1) Plots of the inhibitor concentration vs. the percent inhibition were fit to the following equation: y=(a−d)/[1+(x/c)^b]+d, a general sigmoidal curve with Hill slope, a to d. x is the inhibitor concentration under test. y is the percent inhibition. a is the limiting response as x approaches zero. As x increases without bound, y tends toward its limit d. c is the inflection point (IC50) for the curve. That is, y is halfway between the lower and upper asymptotes when x=c. b is the slope factor or Hill coefficient.
Method for MMP-14: A continuous assay was used in which the substrate is a synthetic peptide containing a fluorescent group (7-methoxycoumarin; Mca) which is quenched by energy transfer to a 2,4-dinitrophenyl group. […] The substrate used was Mca-PQGL-(3-[2,4-dinitrophenyl]-L-2,3-diaminopropionyl)-AR-OH (denoted as Wammp-5, custom synthesized by AnaSpec, Inc.). The assay buffer consisted of 50 mM Hepes (pH 7.4), 100 mM NaCl, 5 mM CaCl2, and 0.005% Brij-35. […] The enzymatic reactions were initiated by adding the substrate to a final concentration of 20 μM, and mixing 10 times with a pipette. The final DMSO concentration in the assay was 6.0%.
as §1

Turning to `CC(C)C(NS(=O)(=O)c1ccc(-c2ccc(NS(=O)(=O)c3cccs3)cc2)cc1)C(=O)O` (stereo in doubt) [Example 171, (R)-3-Methyl-2-[4′-(thiophene-2-sulfonylamino)-biphenyl-4-sulfonylamino]-butyric acid], on MMP-13 (setting [1]), the half-maximal inhibitory concentration (IC50) is 1090 nM. Also, the inhibition at 150 µM at Aggrecanase-1 (read-out: AGG-1 % inhibition at a concentration) is 60%.

Take `CC(C)[C@@H](NS(=O)(=O)c1ccc(-c2ccc(N(C)C(=O)c3cc4ccccc4o3)cc2)cc1)C(=O)O` [Example 75, D-2-{4′-[(Benzofuran-2-carbonyl)-methyl-amino]-biphenyl-4-sulfonylamino}-3-methyl-butyric acid]: the concentration for half-maximal inhibition (IC50) on Aggrecanase-1 stood at 42000 nM.

Turning to `Cc1cc(-c2ccc(S(=O)(=O)N[C@@H](C(=O)O)C(C)C)cc2)cc(C)c1OC(=O)c1oc2ccccc2c1C` [Example 132, D-3-Methyl-benzofuran-2-carboxylic acid 4′-(1-carboxy-2-methyl-propylsulfamoyl)-3,5-dimethyl-biphenyl-4-yl ester], the concentration for half-maximal inhibition (IC50) on MMP-13 (setting [1]) stood at 14 nM; on MMP-14 it was 100000 nM; at Aggrecanase-1 it was 2200 nM; at MMP-2 (setting [2]) it was 346 nM.

With `Cc1cc(-c2ccc(S(=O)(=O)N[C@@H](C(=O)O)C(C)C)cc2)cc(C)c1OC(=O)c1cc2ccccc2o1` [Example 133, D-Benzofuran-2-carboxylic acid 4′-(1-carboxy-2-methyl-propylsulfamoyl)-3,5-dimethyl-biphenyl-4-yl ester], the IC50 was determined as 5.2 nM on MMP-13 (setting [1]); 12000 nM on MMP-14; 800 nM at Aggrecanase-1; 100000 nM on MMP-1; 64 nM at MMP-2 (setting [2]).

For `Cc1c(C(=O)Oc2ccc(-c3ccc(S(=O)(=O)N[C@@H](C(=O)O)C(C)C)cc3)cc2)oc2ccccc12` [Example 134, D-3-Methyl-benzofuran-2-carboxylic acid 4′-(1-carboxy-2-methyl-propylsulfamoyl)-biphenyl-4-yl ester], the IC50 is 1.2 nM on MMP-13 (setting [1]), 6250 nM on MMP-14, 113 nM at Aggrecanase-1 and 17 nM on MMP-2 (setting [2]).

Regarding `CC(C)[C@@H](NS(=O)(=O)c1ccc(-c2ccc(OCc3nc4ccccc4s3)cc2)cc1)C(=O)O` [Example 137, D-2-[4′-(Benzothiazol-2-ylmethoxy)-biphenyl-4-sulfonylamino]-3-methyl-butyric acid], the IC50 on MMP-13 (setting [1]) stood at 4.6 nM; at Aggrecanase-1, 2500 nM; at MMP-2 (setting [2]), 23.9 nM. Further, on MMP-14 (read-out: MMP-14 % inhibition at a concentration, at 1.6 uM), the inhibition at […] came to 49%.

In the case of `CC(C)[C@@H](NS(=O)(=O)c1ccc(-c2ccc(OC(=O)c3ccco3)cc2)cc1)C(=O)O` [Example 144, N-{[4′-(2-Furoyloxy)-1,1′-biphenyl-4-yl]sulfonyl}-D-valine], the 50% inhibitory concentration (IC50) on Aggrecanase-1 stood at 11600 nM.

Take `CC(C)[C@@H](NS(=O)(=O)c1ccc(-c2ccc(OC(=O)c3ccoc3)cc2)cc1)C(=O)O` [Example 145, N-{[4′-(3-Furoyloxy)-1,1′-biphenyl-4-yl]sulfonyl}-D-valine]: at Aggrecanase-1, the IC50 was found to be 8600 nM.

Regarding `COc1c(Br)ccc2oc(COc3ccc(-c4ccc(S(=O)(=O)N[C@H](C(=O)O)C(C)C)cc4)cc3)c(C)c12` [Example 148, N-({4′-[(5-Bromo-4-methoxy-3-methyl-1-benzofuran-2-yl)methoxy]-1,1′-biphenyl-4-yl}sulfonyl)-L-valine], the IC50 on MMP-13 (MMP-13 IC50, recombinant human catalytic domain of MMP-13) was 1.4 nM; at Aggrecanase-1, 400 nM; against MMP-2, 136 nM.

For the compound `CC(C)[C@@H](NS(=O)(=O)c1ccc(-c2ccc(CS(=O)(=O)c3cc4ccccc4o3)cc2)cc1)C(=O)O` [Example 164, D-2-[4′-(Benzofuran-2-sulfonylmethyl)-biphenyl-4-sulfonylamino]-3-methyl-butyric acid], the IC50 on MMP-13 (setting [1]) was 1.1 nM; on MMP-14, 1430 nM; on Aggrecanase-1, 12700 nM; against MMP-1, 500000 nM; on MMP-2 (setting [2]), 5.6 nM.

Take `CC(C)[C@@H](NS(=O)(=O)c1ccc(-c2ccc(C[S+]([O-])c3cc4ccccc4o3)cc2)cc1)C(=O)O` (stereo partly drawn) [Example 165, D-2-[4′-(Benzofuran-2-sulfinylmethyl)-biphenyl-4-sulfonylamino]-3-methyl-butyric acid]: the IC50 was determined as 1.2 nM on MMP-13 (setting [1]); 4.6 nM on MMP-12; 2120 nM at MMP-14; 20000 nM on Aggrecanase-1; 5.6 nM on MMP-2 (setting [2]).

With `CC(C)[C@H](NS(=O)(=O)c1ccc(-c2ccc(NC(=O)c3cc4c(-c5ccccc5)nn(C)c4s3)cc2)cc1)C(=O)O` [Example 167, (S)-3-Methyl-2-{4′-[(1-methyl-3-phenyl-1H-thieno[2,3-c]pyrazole-5-carbonyl)-amino]-biphenyl-4-sulfonylamino}-butyric acid], the IC50 is 12 nM at MMP-13 (setting [1]); 97 nM on MMP-12; 11000 nM at MMP-14; 90000 nM against MMP-1; 9300 nM on MMP-2 (setting [2]).

With `CC(C)[C@@H](NS(=O)(=O)c1ccc(-c2ccc(NC(=O)c3ccco3)cc2)cc1)C(=O)O` [Example 172, (R)-2-{4′-[(Furan-2-carbonyl)-amino]-biphenyl-4-sulfonylamino}-3-methyl-butyric acid], the IC50 at MMP-13 (setting [1]) came out at 29 nM; at MMP-14, 8920 nM; at Aggrecanase-1 it was 43000 nM; against MMP-1, 18500 nM; on MMP-2 (setting [2]) it was 6.9 nM.

Take `CC(C)[C@@H](NS(=O)(=O)c1ccc(-c2ccc(NC(=O)c3cccs3)cc2)cc1)C(=O)O` [Example 173, (R)-3-Methyl-2-{4′-[(thiophene-2-carbonyl)-amino]-biphenyl-4-sulfonylamino}-butyric acid]: the IC50 was found to be 115 nM on MMP-13 (setting [1]) and 25400 nM on Aggrecanase-1.
